# Test results from publication PMC12064818, “A general assay platform to study protein pharmacology using ligand-dependent structural dynamics” (Nature Communications, 2025).
# What was measured:
# [1] = molecular target: firefly luciferase (FLuc) (Photinus pyralis, UniProt P08659); assay: Thermal shift profiles (Thermofluor assay), FLuc; assay type: binding; design: unit of the concentration uncertain; conditions: 52.782 °C; compound 100 (unit uncertain);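 further: normalized first derivative of fluorescence (dF/dT) at the stated temperature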
# Experimental: Thermal stabilization of proteins in the presence of the ligands were determined using Thermofluor technique. MicroAmp optical 384-well plates (Applied Biosystems by Life Technologies), ViiA 7 real-time PCR instrument (Applied Biosystems by Life Technologies) and SYPRO Orange (Life Technologies) were used to test the samples. The final concentration of the protein, compounds and dye were maintained at 5 µM, 100 µM and 10x respectively in a 20 µL reaction volume. […] Proteins were added to the 384-well plate first followed by the compounds. Samples were incubated for 10 mins at room temperature and protected from light. […] The plate was sealed with a MicroAmp optical adhesive film, centrifuged at 1500 RPM for 2 min, and then loaded onto the ViiA 7 real–time PCR instrument for fluorescence intensity measurements upon heating the sample from 25 to 95 °C at 1 °C/min increments. Data was exported to excel, fluorescence intensity data and its first derivative were normalized and plotted using GraphPad Prism to determine Tm. […]
# 6 Read ViiA7 Read the therm al unfolding of the protein with ViiA7 real-tim e PCR system
# 4 Prepare 50X dye in PBS: 1 μL Sypro Orange 5000X (Life Technologies), 99 μL ddH2O. Add 4 μL to each well Read the m elting tem perature from 25 to 95 °C using ViiA 7 real tim e PCR instrum ent by following the below instructions Perform therm al denaturation in 384-well assay plate […]
# [2] = molecular target: FLuc-C-HiBiT (firefly luciferase) (Photinus pyralis, UniProt P08659, form not given/L550V); assay: SDR assay, FLuc-C-HiBiT; conditions: for SDR assay statistics Ave RLU / SDR assay statistics S:B / SDR assay statistics S:N / SDR assay statistics Z’: 32.8 µM ligand; for 10 nM FLuc-C-HiBiT + 10 mM ATP, Mean / 10 nM FLuc-C-HiBiT No ATP, Mean: Log [PTC124]; for SDR + 10 mM ATP / SDR No ATP: 10 nM FLuc-C-HiBiT, normalized activity, Log [Compound]
# [3] = FLuc-C-HiBiT (10 nM) + 10 mM ATP
# FLuc-C-HiBiT (firefly luciferase), sequence (P08659 2-550 L550V, form open): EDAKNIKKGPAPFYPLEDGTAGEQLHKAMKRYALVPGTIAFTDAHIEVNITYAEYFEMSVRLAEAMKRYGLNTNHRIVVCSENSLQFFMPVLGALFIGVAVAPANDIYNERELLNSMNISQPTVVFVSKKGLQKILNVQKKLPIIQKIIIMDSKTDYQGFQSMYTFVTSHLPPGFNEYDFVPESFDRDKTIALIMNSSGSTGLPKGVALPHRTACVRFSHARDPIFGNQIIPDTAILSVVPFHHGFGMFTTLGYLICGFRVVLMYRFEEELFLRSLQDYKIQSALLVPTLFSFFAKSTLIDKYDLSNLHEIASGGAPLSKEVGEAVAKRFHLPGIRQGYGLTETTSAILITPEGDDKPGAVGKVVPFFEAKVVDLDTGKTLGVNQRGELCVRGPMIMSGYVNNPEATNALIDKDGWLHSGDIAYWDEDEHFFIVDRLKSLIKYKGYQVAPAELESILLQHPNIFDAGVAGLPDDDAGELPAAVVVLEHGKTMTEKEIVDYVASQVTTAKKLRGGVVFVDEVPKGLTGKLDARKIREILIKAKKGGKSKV
# firefly luciferase (FLuc), sequence (P08659 whole entry): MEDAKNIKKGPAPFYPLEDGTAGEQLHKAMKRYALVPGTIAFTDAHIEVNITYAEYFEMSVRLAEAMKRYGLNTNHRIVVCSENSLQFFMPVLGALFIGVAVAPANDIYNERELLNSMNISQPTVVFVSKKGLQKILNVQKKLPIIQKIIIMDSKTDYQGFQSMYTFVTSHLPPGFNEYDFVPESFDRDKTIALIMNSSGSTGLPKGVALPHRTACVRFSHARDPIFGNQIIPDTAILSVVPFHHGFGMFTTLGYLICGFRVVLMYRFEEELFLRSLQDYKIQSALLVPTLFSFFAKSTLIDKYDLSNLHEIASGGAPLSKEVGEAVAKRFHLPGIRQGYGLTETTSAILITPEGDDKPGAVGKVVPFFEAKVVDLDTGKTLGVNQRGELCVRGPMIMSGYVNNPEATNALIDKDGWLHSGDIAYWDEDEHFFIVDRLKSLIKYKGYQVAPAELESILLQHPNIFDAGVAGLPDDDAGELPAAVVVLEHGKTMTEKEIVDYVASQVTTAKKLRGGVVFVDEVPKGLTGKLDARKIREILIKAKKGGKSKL
structure (smiles),measurement,setting,value
CC(CNC(=O)C1CCN(C(=O)c2ncn3c2COC(c2ccccc2)C3)CC1)c1ccccc1 (stereo not drawn) [NCGC 00449795],"Thermofluor FLuc, No ATP",[1],0.992
COc1ccc(NC(=O)C2CCN(C(=O)c3ncn4c3COC(c3ccccc3)C4)CC2)cc1Cl (stereo not drawn) [NCGC 00449919],"Thermofluor FLuc, No ATP",[1],0.994
"O=C(O)c1cccc(-c2noc(-c3ccccc3F)n2)c1 [PTC124, reference compound]","pSDR50, FLuc-C-HiBiT (10 nM)",[2]; 0 μM ATP,5.73 ± 0.13
same,"pSDR50, FLuc-C-HiBiT (10 nM)",[2]; 10 μM ATP,8.30 ± 0.07
same,SDR assay statistics Ave RLU,[2]; [3],11178.8 RLU
same,SDR assay statistics S:B,[2]; [3],6.5
same,SDR assay statistics S:N,[2]; [3],12.2
same,SDR assay statistics Z’,[2]; [3],0.693
same,SDR assay statistics Ave RLU,[2]; FLuc-C-HiBiT (10 nM) No ATP,6229.4 RLU
same,SDR assay statistics S:B,[2]; FLuc-C-HiBiT (10 nM) No ATP,5.1
same,SDR assay statistics S:N,[2]; FLuc-C-HiBiT (10 nM) No ATP,7.5
same,SDR assay statistics Z’,[2]; FLuc-C-HiBiT (10 nM) No ATP,0.503
same,"10 nM FLuc-C-HiBiT + 10 mM ATP, Mean",[2]; M (SDR) -4.48,21802.2 RLU
same,"10 nM FLuc-C-HiBiT No ATP, Mean",[2]; M (SDR) -4.48,17458.7 RLU
same,"10 nM FLuc-C-HiBiT + 10 mM ATP, Mean",[2]; M (SDR) -4.96,22284.7 RLU
same,"10 nM FLuc-C-HiBiT No ATP, Mean",[2]; M (SDR) -4.96,16769.9 RLU
same,"10 nM FLuc-C-HiBiT + 10 mM ATP, Mean",[2]; M (SDR) -5.44,22342.5 RLU
same,"10 nM FLuc-C-HiBiT No ATP, Mean",[2]; M (SDR) -5.44,16051.7 RLU
same,"10 nM FLuc-C-HiBiT + 10 mM ATP, Mean",[2]; M (SDR) -5.91,22563.9 RLU
same,"10 nM FLuc-C-HiBiT No ATP, Mean",[2]; M (SDR) -5.91,15076.6 RLU
same,"10 nM FLuc-C-HiBiT + 10 mM ATP, Mean",[2]; M (SDR) -6.39,22424.3 RLU
same,"10 nM FLuc-C-HiBiT No ATP, Mean",[2]; M (SDR) -6.39,13877.2 RLU
same,"10 nM FLuc-C-HiBiT + 10 mM ATP, Mean",[2]; M (SDR) -6.87,22543.4 RLU
same,"10 nM FLuc-C-HiBiT No ATP, Mean",[2]; M (SDR) -6.87,13237.3 RLU
same,"10 nM FLuc-C-HiBiT + 10 mM ATP, Mean",[2]; M (SDR) -7.35,21860.7 RLU
same,"10 nM FLuc-C-HiBiT No ATP, Mean",[2]; M (SDR) -7.35,13241.3 RLU
same,"10 nM FLuc-C-HiBiT + 10 mM ATP, Mean",[2]; M (SDR) -7.82,20621.1 RLU
same,"10 nM FLuc-C-HiBiT No ATP, Mean",[2]; M (SDR) -7.82,13270.4 RLU
same,"10 nM FLuc-C-HiBiT + 10 mM ATP, Mean",[2]; M (SDR) -8.30,18655.3 RLU
same,"10 nM FLuc-C-HiBiT No ATP, Mean",[2]; M (SDR) -8.30,13170.2 RLU
same,"10 nM FLuc-C-HiBiT + 10 mM ATP, Mean",[2]; M (SDR) -8.78,16941.8 RLU
same,"10 nM FLuc-C-HiBiT No ATP, Mean",[2]; M (SDR) -8.78,13237.7 RLU
same,"10 nM FLuc-C-HiBiT + 10 mM ATP, Mean",[2]; M (SDR) -9.25,15920.6 RLU
same,"10 nM FLuc-C-HiBiT No ATP, Mean",[2]; M (SDR) -9.25,13300.5 RLU
same,"10 nM FLuc-C-HiBiT + 10 mM ATP, Mean",[2]; M (SDR) -9.73,15410.2 RLU
same,"10 nM FLuc-C-HiBiT No ATP, Mean",[2]; M (SDR) -9.73,13254.2 RLU
same,"10 nM FLuc-C-HiBiT + 10 mM ATP, Mean",[2]; M (SDR) -10.21,15302.7 RLU
same,"10 nM FLuc-C-HiBiT No ATP, Mean",[2]; M (SDR) -10.21,12964.2 RLU
same,"10 nM FLuc-C-HiBiT + 10 mM ATP, Mean",[2]; M (SDR) -10.69,15229.5 RLU
same,"10 nM FLuc-C-HiBiT No ATP, Mean",[2]; M (SDR) -10.69,13111.1 RLU
same,"10 nM FLuc-C-HiBiT + 10 mM ATP, Mean",[2]; M (SDR) -11.16,15146.3 RLU
same,"10 nM FLuc-C-HiBiT No ATP, Mean",[2]; M (SDR) -11.16,13296.1 RLU
same,"10 nM FLuc-C-HiBiT + 10 mM ATP, Mean",[2]; M (SDR) -11.64,14993.9 RLU
same,"10 nM FLuc-C-HiBiT No ATP, Mean",[2]; M (SDR) -11.64,13163.6 RLU
CC(CNC(=O)C1CCN(C(=O)c2ncn3c2COC(c2ccccc2)C3)CC1)c1ccccc1 (stereo not drawn) [compound 00449795],SDR + 10 mM ATP,[2]; M -4.48,68.6
same,SDR No ATP,[2]; M -4.48,10.5
same,SDR + 10 mM ATP,[2]; M -4.96,61.3
same,SDR No ATP,[2]; M -4.96,11.6
same,SDR + 10 mM ATP,[2]; M -5.44,53.2
same,SDR No ATP,[2]; M -5.44,11.0
same,SDR + 10 mM ATP,[2]; M -5.91,34.2
same,SDR No ATP,[2]; M -5.91,13.6
same,SDR + 10 mM ATP,[2]; M -6.39,20.6
same,SDR No ATP,[2]; M -6.39,11.0
same,SDR + 10 mM ATP,[2]; M -6.87,11.1
same,SDR No ATP,[2]; M -6.87,10.7
same,SDR + 10 mM ATP,[2]; M -7.35,7.5
same,SDR No ATP,[2]; M -7.35,9.2
same,SDR + 10 mM ATP,[2]; M -7.82,10.0
same,SDR No ATP,[2]; M -7.82,13.4
same,SDR + 10 mM ATP,[2]; M -8.30,8.1
same,SDR No ATP,[2]; M -8.30,10.9
same,SDR + 10 mM ATP,[2]; M -8.78,7.1
same,SDR No ATP,[2]; M -8.78,11.5
same,SDR + 10 mM ATP,[2]; M -9.25,7.9
same,SDR No ATP,[2]; M -9.25,9.6
same,"% Activity (max response, + ATP)","[2]; + ATP, SDR max. response, clade S",349.21%
same,"% Activity (max response, - ATP)","[2]; - ATP, SDR max. response, clade S",0.00%
same,ATP dependence of SDR assay output (in words),[2]; FLuc-C-HiBiT,strictly ATP-dependent
